According to paper PMC1664607 (PLoS Medicine, 2006):
“And” between values parts separate entries of the source, which are not always exact repeats. Equal entries are not always repeated.

Tested on: clinically isolated M. tuberculosis
Assay: microbe, parasite or virus in culture
Assay type: cell-based

Q: Which results are given for C[C@]1(COc2ccc(N3CCC(Oc4ccc(OC(F)(F)F)cc4)CC3)cc2)Cn2cc([N+](=O)[O-])nc2O1 [OPC-67683, (R)-2-methyl-6-nitro-2-(4-[4-(4-trifluoromethoxyphenoxy)piperidin-1-yl]phenoxymethyl}-2,3-dihydroimidazo[2,1-b]oxazole]?
A: Cross-resistance with the currently used anti-TB drugs: no cross-resistance; MIC90: 0.0134 µg/mL and 0.01221 µg/mL and 0.01279 µg/mL and 0.01341 µg/mL
